Results published in PMC10384562, “Synthesis and Structure Determination of Substituted Thiazole Derivatives as EGFR/BRAF^V600E Dual Inhibitors Endowed with Antiproliferative Activity” (Pharmaceuticals, 2023).
Where two headings read alike, the source gives them in different places.

Tests used:
[1] = test system: lung cancer (A-549) cell line; experiment: Antiproliferative assay, A-549; assay type: cell-based; conditions: Homo sapiens, A549; A-549 lung cancer cells; read-out: Antiproliferative Activity IC50 ± SEM, A-549
Protocol: (§1) 4.2.1.2. Assay for antiproliferative effect
(§2) To explore the antiproliferative potential of compounds propidium iodide fluorescence assay was performed using different cell lines such as Panc-1 (pancreas cancer cell line), MCF-7 (breast cancer cell line), HT-29 (colon cancer cell line) and A-549 (epithelial cancer cell line), respectively. To calculate the total nuclear DNA, a fluorescent dye (propidium iodide, PI) is used which can attach to the DNA, thus offering a quick and precise technique. PI cannot pass through the cell membrane and its signal intensity can be considered as directly proportional to quantity of cellular
(§3) DNA. Cells whose cell membranes are damaged or have changed permeability are counted as dead ones. The assay was performed by seeding the cells of different cell lines at a density of 3000-7500 cells/well (in200μl medium) in culture plates followed by incubation for 24h at 37 °C in humidified 5%CO2/95% air atmospheric conditions.
(§4) The medium was removed; the compounds were added to the plates at 10 μM concentrations (in 0.1% DMSO) in triplicates, followed by incubation for 48h. DMSO (0.1%) was used as control. After incubation, medium was removed followed by the addition of PI (25 μl, 50μg/mL in water/medium) to each well of the plates. At -80 °C, the plates were allowed to freeze for 24 h, followed by thawing at 25 °C. A fluorometer (Polar-Star BMG Tech) was used to record the readings at excitation and emission wavelengths of 530 and 620 nm for each well. The percentage cytotoxicity of compounds was calculated using the following formula:
(§5) Where ATC= Absorbance of treated cells and AC= Absorbance of control. Erlotinib was used as positive control in the assay.
(§6) (1 picture or pasted object on this page, not shown here)

[2] = test system: breast cancer (MCF-7) cell line; experiment: Antiproliferative assay, MCF-7; assay type: cell-based; conditions: Homo sapiens, MCF7; MCF-7 breast cancer cells; read-out: Antiproliferative Activity IC50 ± SEM, MCF-7
Protocol: as §1, §2, §3, §4, §5

[3] = test system: pancreatic cancer (Panc-1) cell line; experiment: Antiproliferative assay, Panc-1; assay type: cell-based; conditions: Homo sapiens; Panc-1 pancreatic cancer cells; read-out: Antiproliferative Activity IC50 ± SEM, Panc-1
Protocol: as §1, §2, §3, §4, §5

[4] = test system: colon cancer (HT-29) cell line; experiment: Antiproliferative assay, HT-29; assay type: cell-based; conditions: Homo sapiens; HT-29 colon cancer cells; read-out: Antiproliferative Activity IC50 ± SEM, HT-29
Protocol: as §1, §2, §3, §4, §5

[5] = test system: four human cancer cell lines (A-549, MCF-7, Panc-1, HT-29); experiment: Antiproliferative assay, average over four cancer cell lines (GI50); assay type: cell-based; conditions: for IC50: average IC50 (GI50) over A-549, MCF-7, Panc-1, HT-29; for fold less potent than compound 3f (GI50): ratio of GI50 to that of 3f
Protocol: as §1
To explore the antiproliferative potential of compounds propidium iodide fluorescence assay was performed using different cell lines such as Panc-1 (pancreas cancer cell […]
(epithelial cancer cell line), respectively. To calculate the total nuclear DNA, a fluorescent dye (propidium iodide, PI) is used which can attach to the DNA, thus offering a quick and precise technique. PI cannot pass through the cell membrane and its signal intensity can be considered as directly proportional to quantity of cellular
DNA. Cells whose cell membranes are damaged or have changed permeability are counted as dead ones. The assay was performed by seeding the cells of different cell lines at a density of 3000-7500 cells/well (in200μl medium) in culture plates followed […]
as §4
Where ATC= Absorbance of treated cells and AC= Absorbance of control. […]
was used as positive control in the assay.
as §6

EGFR [6] = molecular target: T1, EGFR (Homo sapiens, UniProt P00533); experiment: EGFR-TK inhibitory assay; assay type: biochemical; conditions: for fold less potent than erlotinib (EGFR IC50): ratio of EGFR IC50 to that of erlotinib; for IC50: read-out: EGFR Inhibition IC50 ± SEM
T1 construct: CD, amino acids 645–1186); His6 (N); made in house; host or cells: Sf-9 insect cells (baculovirus; pBlueBacHis2B / pFASTBacHTc
T1 sequence (P00533 669-1210): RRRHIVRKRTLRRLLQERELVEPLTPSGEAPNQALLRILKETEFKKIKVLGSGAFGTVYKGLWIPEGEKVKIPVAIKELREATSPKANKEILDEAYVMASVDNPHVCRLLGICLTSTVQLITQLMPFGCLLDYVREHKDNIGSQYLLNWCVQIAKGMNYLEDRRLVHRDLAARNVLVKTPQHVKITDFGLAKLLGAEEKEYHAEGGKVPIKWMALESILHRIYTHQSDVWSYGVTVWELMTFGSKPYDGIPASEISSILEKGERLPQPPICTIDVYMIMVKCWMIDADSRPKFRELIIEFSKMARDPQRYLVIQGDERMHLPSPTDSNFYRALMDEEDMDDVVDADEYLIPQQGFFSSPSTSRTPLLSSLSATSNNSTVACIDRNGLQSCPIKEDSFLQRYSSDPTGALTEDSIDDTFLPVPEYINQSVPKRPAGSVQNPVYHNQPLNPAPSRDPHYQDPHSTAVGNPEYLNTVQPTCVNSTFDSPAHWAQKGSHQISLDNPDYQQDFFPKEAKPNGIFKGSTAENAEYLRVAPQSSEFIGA
Protocol: 4.2.2. EGFR inhibitory assay
Baculoviral expression vectors including pBlueBacHis2B and pFASTBacHTc were […]
5ʹ upstream to the EGFR sequence comprised a sequence that encoded (His)6. Sf-9 cells were infected for 72h for protein expression. The pellets of Sf-9 cells were solubilized in a buffer containing sodium vanadate (100 μM), aprotinin (10 μg/mL), triton (1%), HEPES buffer(50mM), ammonium molybdate (10 μM), benzamidine HCl (16 μg/mL), NaCl (10 mM),leupeptin (10 μg/mL) and pepstatin (10 μg/mL) at 0°C for 20 min at pH 7.4, followed by centrifugation for 20 min. To eliminate the nonspecifically bound material, a Ni-NTA super flow packed column was used to pass through and wash the crude extract supernatant first with 10mM and then with 100 mM imidazole. Histidine-linked proteins were first eluted with 250 and then with 500 mM imidazole subsequent to dialysis against NaCl (50 mM), HEPES (20 mM), glycerol (10%) and 1 μg/mL each of aprotinin, leupeptin and pepstatin for 120 min. The purification was performed either at 4 °C or on ice. To record autophosphorylation level, EGFR kinase assay was carried out on the basis of DELFIA/Time-Resolved Fluorometry. The compounds were first dissolved in DMSO […]
pH 7.4. Each compound (10 μL) was incubated with recombinant enzyme (10 μL, 5 ng for EGFR, 1:80 dilution in 100 mM HEPES) for 10 min at 25 °C, subsequent to the addition of 5X buffer (10 μL, containing 2 mM MnCl2, 100 μM Na3VO4, 20 mM HEPES and 1 mM DTT) and ATP-MgCl2 (20 μL, containing 0.1 mM ATP and 50 mM MgCl2) and incubation for 1h. The negative and positive controls were included in each plate by the incubation of enzyme either with or without ATP-MgCl2. The liquid was removed after incubation and the plates were washed thrice using wash buffer.
Europium-tagged antiphosphotyrosine antibody (75 μL, 400 ng) was added to each well followed by incubation of 1h and then washing of the plates using buffer. The enhancement solution was added to each well and the signal was recorded at excitation […]
The autophosphorylation percentage inhibition by compounds was calculated using the following equation: […]

BRAF^V600E = molecular target: T2, BRAF^V600E (Mus musculus, UniProt P28028, V585E); experiment: BRAF^V600E inhibitory assay; assay type: biochemical; conditions: read-out: BRAF^V600E Inhibition IC50 ± SEM
T2 construct: Mouse full-length GST-tagged BRAFV600E (7.5 ng,; GST; purchased Invitrogen PV3849
T2 sequence (P28028 whole entry V585E): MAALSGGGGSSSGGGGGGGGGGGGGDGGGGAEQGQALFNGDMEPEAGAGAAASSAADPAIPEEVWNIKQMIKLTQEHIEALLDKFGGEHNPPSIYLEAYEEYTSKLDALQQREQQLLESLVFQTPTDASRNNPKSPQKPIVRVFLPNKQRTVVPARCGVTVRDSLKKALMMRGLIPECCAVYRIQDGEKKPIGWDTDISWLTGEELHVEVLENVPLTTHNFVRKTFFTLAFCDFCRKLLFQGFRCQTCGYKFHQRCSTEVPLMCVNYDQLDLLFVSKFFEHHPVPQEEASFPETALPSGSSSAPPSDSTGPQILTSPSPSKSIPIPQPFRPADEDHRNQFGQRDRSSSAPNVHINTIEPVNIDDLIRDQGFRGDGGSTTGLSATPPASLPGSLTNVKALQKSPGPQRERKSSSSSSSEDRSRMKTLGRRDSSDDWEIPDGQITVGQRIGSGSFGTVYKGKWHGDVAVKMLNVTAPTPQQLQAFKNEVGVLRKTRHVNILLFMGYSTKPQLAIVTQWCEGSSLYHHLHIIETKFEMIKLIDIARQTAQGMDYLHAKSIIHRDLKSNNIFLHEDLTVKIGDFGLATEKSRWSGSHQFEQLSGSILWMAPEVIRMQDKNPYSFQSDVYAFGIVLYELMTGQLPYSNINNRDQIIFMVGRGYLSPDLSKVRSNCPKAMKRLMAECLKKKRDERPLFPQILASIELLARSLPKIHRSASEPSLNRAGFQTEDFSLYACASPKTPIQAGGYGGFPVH
Protocol: See Supplementary Information. […]
4.2.3. BRAFV600E inhibitory assay
V600E mutant BRAF kinase assay was performed to investigate the activity of tested compounds against BRAF. Mouse full-length GST-tagged BRAFV600E (7.5 ng, Invitrogen, PV3849) was pre-incubated with drug (1 µL) and assay dilution buffer (4 µL) for 60 min at 25 °C. In assay dilution buffer, a solution (5 µL) containing MgCl2 (30 mM), ATP (200 µM), recombinant human full length (200 ng) […] N-terminal His-tagged MEK1 (Invitrogen) was added to start the assay, subsequent to incubation for 25 min at 25 °C. The assay was stopped using 5X protein denaturing buffer (LDS) solution (5 µL). To further denature the protein, heat (70° C) was applied for 5 min. 4- […]
200 V). 10 µL of each reaction was loaded into the precast plates and electrophoresis was allowed to proceed. After completion of electrophoresis, the front part of the precast gel plate (holding hot ATP) was cut and afterwards cast-off. The dried gel was developed using a phosphor screen. A reaction without active enzyme was used as negative control while that containing no inhibitor served as positive control. […]
4.3. Statistical analysis
Computerized Prism 5 program was used to statistically analyzed data using one-way ANOVA test followed by Tukey’s as post ANOVA for multiple comparison at P ≤.05.
Data were presented as mean ± SEM.

[7] = Cell viability assay (MTT) on normal mammary epithelial cells; conditions: human, MCF-10A mammary gland epithelial cells
in vitro = conditions: human
[8] = test system: four evaluated cancer cell lines; design: method as in doi:10.1016/j.arabjc.2023.104612; conditions: ref [36]; read-out: GI50 against the four evaluated cancer cell lines; cited from earlier work
EGFR [9] = molecular target: T1, EGFR; design: method as in doi:10.1016/j.arabjc.2023.104612; conditions: ref [36]; cited from earlier work

melting point	SMILES	IC50 [1]	IC50 [2]	IC50 [3]	IC50 [4]	IC50 ([5]; Homo sapiens)	fold less potent than erlotinib (EGFR IC50) (EGFR [6])	IC50 (EGFR [6])	IC50 (BRAF^V600E)	viability at 96 h, 50 µM [7]	fold less potent than compound 3f (GI50) [5]	viability at 96 h, 50 µM (in vitro)	IC50 [5]	GI50 [8]	IC50 (EGFR [9])
	CCn1c(C)cs/c1=N\Nc1ccc([N+](=O)[O-])cc1[N+](=O)[O-] [Compound 3b, (Z)-2-(2-(2,4-Dinitrophenyl)Hydrazineylidene)-3-Ethyl-4-Methyl-2,3-Dihydrothiazole]	78 ± 7 nM	82 ± 8 nM	80 ± 8 nM	80 ± 8 nM	80 nM					2.2 fold	91%			
	Cc1cs/c(=N/Nc2ccc([N+](=O)[O-])cc2[N+](=O)[O-])n1C1CCCCC1 [Compound 3d, (Z)-3-Cyclohexyl-2-(2-(2,4-Dinitrophenyl)Hydrazineylidene)-4-Methyl-2,3-Dihydrothi-Azole]	43 ± 4 nM	47 ± 4 nM	46 ± 4 nM	46 ± 4 nM	46 nM	1.15 fold	91 ± 7 nM	112 ± 10 nM	92%	1.3 fold				
	Cc1cs/c(=N\Nc2ccc([N+](=O)[O-])cc2[N+](=O)[O-])n1-c1ccccc1 [Compound 3e, (Z)-2-(2-(2,4-Dinitrophenyl)Hydrazineylidene)-4-Methyl-3-Phenyl-2,3-Dihydrothiazole]	71 ± 7 nM	74 ± 7 nM	72 ± 7 nM	72 ± 7 nM	72 nM					2 fold	87%			
	Cc1ccc(-n2c(C)cs/c2=N/Nc2ccc([N+](=O)[O-])cc2[N+](=O)[O-])cc1 [Compound 3f, (Z)-2-(2-(2,4-Dinitrophenyl)Hydrazineylidene)-4-Methyl-3-(p-Tolyl)-2,3-Dihydrothi-Azole]	35 ± 3 nM	40 ± 3 nM	37 ± 3 nM	37 ± 3 nM	37 nM	1.1 fold	89 ± 7 nM	93 ± 8 nM			89%			
193 to 194 °C	Cc1ccc(S(=O)(=O)N/N=c2\scc(C)n2-c2ccccc2)cc1 [Compound 3g, (Z)-4-Methyl-N′-(4-Methyl-3-Phenylthiazol-2(3H)-Ylidene) Benzenesulfonohydrazide]	58 ± 5 nM	63 ± 6 nM	60 ± 6 nM	58 ± 5 nM	60 nM				90%					
236 to 238 °C	C=CCn1c(C)cs/c1=N\NS(=O)(=O)c1ccc(C)cc1 [Compound 3h, (Z)-N′-(3-Allyl-4-Methylthiazol-2(3H)-Ylidene)-4-Methyl Benzenesulfonohydrazide]	63 ± 6 nM	68 ± 6 nM	65 ± 6 nM	65 ± 6 nM	65 nM				92%					
236 to 238 °C	CCn1c(C)cs/c1=N\NS(=O)(=O)c1ccc(C)cc1 [Compound 3i, (Z)-N′-(3-Ethyl-4-Methylthiazol-2(3H)-Ylidene)-4-Methyl Benzenesulfonohydrazide]	84 ± 8 nM	89 ± 8 nM	86 ± 8 nM	86 ± 8 nM	86 nM				95%					
	COc1cccc(-n2c(-c3ccccc3)cs/c2=N\c2c[nH]c(=O)[nH]c2=O)c1 [Compound V]													900 nM	74 ± 7 nM
	C#Cc1cccc(Nc2ncnc3cc(OCCOC)c(OCCOC)cc23)c1 [Erlotinib, reference compound]	30 ± 3 nM	40 ± 3 nM	30 ± 3 nM	30 ± 3 nM										

SMILES	melting point	IC50 [1]	IC50 [2]	IC50 [3]	IC50 [4]	IC50 ([5]; Homo sapiens)	fold less potent than erlotinib (EGFR IC50) (EGFR [6])	IC50 (EGFR [6])	IC50 (BRAF^V600E)	viability at 96 h, 50 µM [7]	fold less potent than compound 3f (GI50) [5]	viability at 96 h, 50 µM (in vitro)	IC50 [5]	GI50 [8]	IC50 (EGFR [9])
Cc1cs/c(=N\Nc2ccc([N+](=O)[O-])cc2[N+](=O)[O-])n1Cc1ccccc1 [Compound 3a, (Z)-3-Benzyl-2-(2-(2,4-Dinitrophenyl)Hydrazineylidene)-4-Methyl-2,3-Dihydrothiazole]	215 to 217 °C	45 ± 4 nM	49 ± 4 nM	48 ± 4 nM	48 ± 4 nM	48 nM	1.15 fold	93 ± 8 nM	117 ± 10 nM	89%					
C=CCn1c(C)cs/c1=N\Nc1ccc([N+](=O)[O-])cc1[N+](=O)[O-] [Compound 3c, (Z)-3-Allyl-2-(2-(2,4-Dinitrophenyl)Hydrazineylidene)-4-Methyl-2,3-Dihydrothiazole]	197 to 198 °C	50 ± 5 nM	56 ± 5 nM	54 ± 5 nM	54 ± 5 nM	> 50 nM		98 ± 9 nM	126 ± 11 nM	90%			54 nM		
